Tests used:
[1] = Toxicity data (LD50) of tetracyclines and Tri-tetracyclines in mice; conditions: mouse, in vivo, oral
[2] = Chloroform/water distribution quotient; assay type: physicochemical; conditions: pH=7.4
Excerpt: The solution is filled into ampoules in nitrogen atmosphere.

[3] = background statement; cited from earlier work
[4] = cited from earlier work
[5] = tested on: tetracycline-resistant Proteus strains; conditions: cited from earlier work
[6] = cited from earlier work; remark: listed apart in the source
[7] = per os; cited from earlier work
[8] = cited from earlier work; remark: listed apart in the source

## CN(C)[C@@H]1C(=O)C(C(N)=O)=C(O)[C@@]2(O)C(=O)C3=C(O)c4c(O)cccc4[C@@](C)(O)[C@H]3[C@H](O)[C@@H]12 [OTC, 5-hydroxytetracycline]
[1]
  LD50: 2500 mg/kg
[2]
  chloroform/water distribution quotient K: 0.008

## CC(=O)C1=C(O)C2(O)C(=O)c3c(c(C)c4ccc(C)c(O)c4c3O)CC2C(N)C1=O (stereo not drawn) [chelocardin, 2-decarboxamido-2-acetyl-4-dedimethylamino-4-epiamino-9-methyl-5a,6-anhydrotetracyline]
[3]
  water solubility: lower than that of other tetracyclines
[4]
  lipid solubility: moderately lipid soluble
[5]
  effect against tetracycline-resistant Proteus: effective
[6]; peroral
  absorption: low absorption value

## C[C@H]1c2cccc(O)c2C(O)=C2C(=O)[C@]3(O)C(O)=C(C(N)=O)C(=O)[C@@H](N(C)C)[C@@H]3[C@@H](O)[C@@H]21 [doxycycline, 6-deoxy-5-hydroxytetracycline]
[6]; in vivo
  excretion: with faeces as well
[7]
  gastrointestinal disorders: gastrointestinal disorders can be observed

## NC(CO)(CO)CO [tris(hydroxymethyl)aminomethane]
[8]
  pK: 8.33

— patent US4418060A, “Therapeutically active complexes of tetracyclines” (priority 1971, dated 1983)
